According to publication PMC9234956 (Journal of Medicinal Chemistry, 2022):
Numbering of substitutions follows the chain as printed. Counter-ions that a name gives are not always drawn. Like-named read-outs stand apart in the source and are kept apart here. Marks after values point to notes of the source that are not given here.

What was measured:
[1] = rat, Tris salt, fasted
[2] = monkey, 5.0 mg/kg po, Tris salt, fasted
human GLP-1R [3] = target: T1, human GLP-1R (Homo sapiens, UniProt P43220); assay: cAMP assay in candidate selection; settings: for CS cAMP slope: slope of concentration-response curve
human GLP-1R [4] = target: T1, human GLP-1R; settings: for SA cAMP – BETP slope: slope of concentration-response curve
human GLP-1R [5] = target: T1, human GLP-1R; assay: βArr2 recruitment, DiscoverX PathHunter cell line, buffer with 0.1% BSA; assay type: cell-based; settings: for βArr2 slope: buffer containing 0.1% BSA
human GLP-1R [6] = target: T1, human GLP-1R; assay: βArr1 recruitment, DiscoverX PathHunter cell line, buffer with 0.1% BSA; assay type: cell-based; settings: buffer containing 0.1% BSA
human GLP-1R [7] = target: T1, human GLP-1R
human GLP-1R [8] = target: T1, human GLP-1R; settings: assay medium
[9] = Intrinsic metabolic clearance in human liver microsomes; assay type: in vitro ADME; settings: scaled from in vitro half-life; for CLint scaled: human, liver microsomes, HLM CLint
human GLP-1R [10] = target: T1, human GLP-1R; assay: BETP-sensitized cAMP screening assay; assay type: cell-based; settings: for SA cAMP + BETP slope: slope of concentration-response curve
[11] = Intrinsic metabolic clearance in cryopreserved human hepatocytes; assay type: in vitro ADME
in vivo [12] = settings: male, cynomolgus monkey, plasma, iv, 1 mg/kg
in vivo [13] = settings: male, Wistar-Han, rat, plasma, iv, 1 mg/kg
GFP-tagged human GLP-1R = GFP-tagged human GLP-1R (Homo sapiens, UniProt P43220); assay: Confocal microscopy of GFP-tagged human GLP-1R in HEK 293 cells; assay type: cell-based; settings: stimulation for 30 min; reversible following a 2 h washout
cynomolgus monkeys [14] = assay: Intravenous glucose tolerance test; settings: iv infusion
rabbit GLP-1R = target: T2, rabbit GLP-1R (Oryctolagus cuniculus, UniProt G1SGD4); assay: cAMP accumulation, CHO cells expressing rabbit GLP-1R; assay type: cell-based
T2 sequence (G1SGD4 24-462): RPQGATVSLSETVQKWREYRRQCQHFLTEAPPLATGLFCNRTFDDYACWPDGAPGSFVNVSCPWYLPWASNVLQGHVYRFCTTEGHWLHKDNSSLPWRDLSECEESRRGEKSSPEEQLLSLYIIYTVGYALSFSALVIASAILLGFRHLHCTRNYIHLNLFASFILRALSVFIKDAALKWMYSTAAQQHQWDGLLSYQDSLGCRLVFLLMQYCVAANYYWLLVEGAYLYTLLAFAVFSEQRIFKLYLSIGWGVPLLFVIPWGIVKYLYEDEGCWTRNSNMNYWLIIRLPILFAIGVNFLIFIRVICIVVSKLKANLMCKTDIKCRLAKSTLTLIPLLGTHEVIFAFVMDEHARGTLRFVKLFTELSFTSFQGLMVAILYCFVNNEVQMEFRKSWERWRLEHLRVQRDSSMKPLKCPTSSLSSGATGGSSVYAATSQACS

mouse GLP-1R S33W = target: T3, mouse GLP-1R S33W (Mus musculus, UniProt O35659, S33W)
T3 sequence (O35659 22-463 S33W): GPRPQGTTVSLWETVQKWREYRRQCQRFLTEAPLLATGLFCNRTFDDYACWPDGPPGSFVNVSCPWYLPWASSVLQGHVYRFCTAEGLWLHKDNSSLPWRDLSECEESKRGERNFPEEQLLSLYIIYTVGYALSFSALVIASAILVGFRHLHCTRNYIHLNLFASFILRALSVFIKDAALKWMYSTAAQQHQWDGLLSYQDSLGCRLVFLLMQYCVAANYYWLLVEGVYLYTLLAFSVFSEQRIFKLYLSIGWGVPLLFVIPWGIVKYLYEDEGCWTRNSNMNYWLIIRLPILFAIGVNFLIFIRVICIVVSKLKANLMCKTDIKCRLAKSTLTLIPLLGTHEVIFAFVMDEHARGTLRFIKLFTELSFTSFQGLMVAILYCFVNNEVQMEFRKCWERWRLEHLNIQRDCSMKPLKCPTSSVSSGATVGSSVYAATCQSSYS

[15] = system: healthy adult participants; assay: Phase 1 first-in-human single ascending dose study: safety
mouse GLP-1R = target: T4, mouse GLP-1R (Mus musculus, UniProt O35659); assay: cAMP accumulation, CHO cells expressing mouse GLP-1R; assay type: cell-based
T4 sequence (O35659 22-463): T3 sequence (O35659 22-463 S33W) with W12S

[16] = single oral doses 3–300 mg, fasted
human GLP-1R [17] = target: T1, human GLP-1R; settings: relative to liraglutide; HEK 293 FAP-GLP1R
human GLP-1R [18] = target: T1, human GLP-1R; remark: listed apart in the source
cynomolgus monkeys [19] = assay: Cynomolgus monkey food intake; assay type: in vivo; settings: 2.9 mg/kg subcutaneous once daily for 2 days
rat GLP-1R = target: T5, rat GLP-1R (Rattus norvegicus, UniProt P32301); assay: cAMP accumulation, CHO cells expressing rat GLP-1R; assay type: cell-based
T5 sequence (P32301 22-463): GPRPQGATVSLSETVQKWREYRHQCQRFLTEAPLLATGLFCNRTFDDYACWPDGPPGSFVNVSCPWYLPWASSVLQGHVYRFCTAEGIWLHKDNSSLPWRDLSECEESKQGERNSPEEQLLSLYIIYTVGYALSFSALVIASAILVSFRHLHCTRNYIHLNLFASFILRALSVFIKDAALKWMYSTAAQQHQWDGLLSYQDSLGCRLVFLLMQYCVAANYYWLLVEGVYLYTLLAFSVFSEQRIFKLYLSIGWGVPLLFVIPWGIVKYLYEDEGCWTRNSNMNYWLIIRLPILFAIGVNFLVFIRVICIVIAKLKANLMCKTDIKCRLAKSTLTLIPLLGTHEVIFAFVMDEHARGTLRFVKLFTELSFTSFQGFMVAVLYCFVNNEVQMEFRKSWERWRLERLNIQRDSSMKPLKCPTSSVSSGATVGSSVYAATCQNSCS

human GLP-1R W33S = human GLP-1R W33S (Homo sapiens, UniProt P43220, W33S); assay: cAMP, functional assessment of GLP-1R mutants: human W33S
Chain of human GLP-1R W33S (P43220 24-463 W33S): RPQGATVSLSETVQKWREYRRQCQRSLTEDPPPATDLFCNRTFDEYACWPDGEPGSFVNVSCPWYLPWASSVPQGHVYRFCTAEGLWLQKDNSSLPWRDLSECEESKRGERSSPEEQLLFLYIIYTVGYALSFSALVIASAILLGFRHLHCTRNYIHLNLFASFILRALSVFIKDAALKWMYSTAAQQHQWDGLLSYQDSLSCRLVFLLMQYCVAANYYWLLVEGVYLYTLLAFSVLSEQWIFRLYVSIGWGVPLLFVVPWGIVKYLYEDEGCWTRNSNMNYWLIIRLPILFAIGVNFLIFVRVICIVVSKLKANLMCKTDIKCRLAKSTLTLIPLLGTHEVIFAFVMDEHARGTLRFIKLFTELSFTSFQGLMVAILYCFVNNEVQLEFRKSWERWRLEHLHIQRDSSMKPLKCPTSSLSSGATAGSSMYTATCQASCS

T1 sequence (P43220 24-463): as the sequence (P43220 24-463 W33S) above, with S10W counted along it
Chain of GFP-tagged human GLP-1R (P43220 24-463): as the sequence (P43220 24-463 W33S) above, with S10W counted along it

In the case of N#Cc1ccc(COc2cccc(C3CCN(Cc4nc5ccc(C(=O)O)cc5n4C[C@@H]4CCO4)CC3)n2)c(F)c1 [Danuglipron, Tris salt, (S)-2-[(4-{6-[(4-Cyano-2-fluorobenzyl)oxy]pyridin-2-yl}piperidin-1-yl)methyl]-1-(oxetan-2-ylmethyl)-1H-benzo[d]imidazole-6-carboxylic Acid], the “oral F” value ([1]; 5.0 mg/kg po) is reported as 11 (10, 12) %, the “oral F” value ([1]; 100 mg/kg po) is reported as 39 (37, 44) % and the “oral F” value [2] is reported as 5.0 (4.0, 6.0) %.

With CCn1cncc1Cn1c(CN2CCC(c3cccc(OCc4ccc(F)cc4F)n3)CC2)nc2ccc(C(=O)O)cc21 [PF-06883365] the “CS cAMP slope” value (human GLP-1R [3]) was 1.1 ± 0.19, the “SA cAMP – BETP slope” value (human GLP-1R [4]) was 0.98 ± 0.12 and the βArr2 slope (human GLP-1R [5]) was 0.79 ± 0.12. For the same molecule, the βArr1 slope (human GLP-1R [6]) was 0.94 ± 0.013 and the “[3H]PF-06883365 binding slope” value (human GLP-1R [7]) was 1.0 ± 0.15.

With Cn1c(CN2CCC(c3cccc(OCc4ccc(Cl)cc4F)n3)CC2)nc2nccc(NCC(=O)O)c21 [compound 4] the “βArr2 + BETP slope” value (human GLP-1R [8]) was 0.93 (0.98, 0.88), the “SA cAMP – BETP slope” value (human GLP-1R [4]) was 0.75 ± 0.18 and the CLint scaled [9] was under 11 mL/min/kg. For the same molecule, the “SA cAMP + BETP slope” value (human GLP-1R [10]) was 0.76 ± 0.058.

For Cn1c(CN2CCC(c3nc(OCc4ccc(Cl)cc4F)ncc3F)CC2)nc2ccccc21 [compound 2], the “GLP-1R agonist activity in the unpotentiated cAMP SA” value (human GLP-1R [4]; without BETP) was “inactive”, the CLint scaled [9] was over 150 mL/min/kg and the “hHEP CLint” value [11] was 48 (n = 1) μL/min/million. For the same molecule, the “SA cAMP + BETP slope” value (human GLP-1R [10]) was 1.3 ± 0.75.

With Cn1c(CN2CCC(c3cccc(OCc4ccc(Cl)cc4F)n3)CC2)nc2ccncc21 [compound 3] the “βArr2 + BETP slope” value (human GLP-1R [8]) was 0.97 ± 0.10, the “SA cAMP – BETP slope” value (human GLP-1R [4]) was 1.2 ± 0.26 and the CLint scaled [9] was 130 mL/min/kg. The “HLM CLint” value [9] was 140 ± 46 (n = 3) mL/min/kg, the “hHEP CLint” value [11] was 55 (n = 1) μL/min/million and the “fold more potent than HTS hit 2” value (human GLP-1R [10]; SA + BETP EC50) was over 100 fold. For the same molecule, the “SA cAMP + BETP slope” value (human GLP-1R [10]) was 0.89 ± 0.17.

With Cn1c(CN2CCC(c3cccc(OCc4ccc(Cl)cc4F)n3)CC2)nc2ccc(C(=O)O)nc21 [compound 5] the “βArr2 + BETP slope” value (human GLP-1R [8]) was 0.69 ± 0.13, the “agonist character in CS cAMP assay” value (human GLP-1R [3]) was “full agonist” and the “fold less potent in CS cell line than in SA” value (human GLP-1R [3]; CS vs SA cAMP EC50) was about 20 fold. For the same molecule, the “CS cAMP slope” value (human GLP-1R [3]) was 1 ± 0.14, the “SA cAMP – BETP slope” value (human GLP-1R [4]) was 1.1 ± 0.17 and the CLint scaled [9] was 29 ± 4.4 mL/min/kg. The “SA cAMP + BETP slope” value (human GLP-1R [10]) was 0.97 ± 0.15.

N#Cc1ccc(COc2cccc(C3CCN(Cc4nc5ccc(C(=O)O)cc5n4C[C@@H]4CCO4)CC3)n2)c(F)c1 [danuglipron, (S)-2-[(4-{6-[(4-Cyano-2-fluorobenzyl)oxy]pyridin-2-yl}piperidin-1-yl)methyl]-1-(oxetan-2-ylmethyl)-1H-benzo[d]imidazole-6-carboxylic Acid] gave a clearance at 24 h (in vivo [12]) of 13.8 mL/min/kg, a half-life (in vivo [12]) of 1.9 h and a clearance at 24 h (in vivo [13]) of 57.3 ± 8.68 mL/min/kg. The half-life (in vivo [13]) was 1.1 h, the “intracellular accumulation of GFP-GLP-1R” value (GFP-tagged human GLP-1R) was “marked intracellular accumulation of the GFP-GLP-1R” and the “insulin secretion during IVGTT” value (cynomolgus monkeys [14]) was “increase in the rate of insulin secretion”. For the same molecule, the “rate of glucose disappearance (K value) during IVGTT” value (cynomolgus monkeys [14]) was “increased the rate of glucose disappearance”, the “insulin secretion during IVGTT” value (cynomolgus monkeys [14]; listed as Danuglipron) was “enhanced insulin secretion” and the “effect on cAMP levels” value (rabbit GLP-1R) was “did not increase cAMP levels”. The “cAMP signaling at mouse GLP-1R S33W” value (mouse GLP-1R S33W) was “increased the level of accumulation of cAMP”, the “cAMP signaling at mouse GLP-1R S33W” value (mouse GLP-1R S33W; listed as Danuglipron) was “restored” and the “post-dose fasting serum glucose levels” value ([15]; after single doses, healthy participants) was “remained within the normal reference range”. For the same molecule, the “tolerability after po administration under fasted conditions” value ([15]; single doses 3 to 300 mg, healthy adults) was “generally well tolerated”, the “agonist character in CS cAMP assay” value (human GLP-1R [3]) was “full agonist” and the “CS cAMP slope” value (human GLP-1R [3]) was 1.1 ± 0.14. For the same molecule, the “SA cAMP – BETP slope” value (human GLP-1R [4]) was 1.1 ± 0.11, the “effect on cAMP levels” value (mouse GLP-1R) was “did not increase cAMP levels” and the “increase of plasma exposure (Cmax, AUCinf) with dose” value [16] was “approximately dose-proportional”. The “Bias factor (toward cAMP), cAMP vs Internalization” value (human GLP-1R [17]) was 3.6, the “[125I]GLP-1 binding slope” value (human GLP-1R [18]) was 0.70 ± 0.099 and the “agonist character in βArr2 recruitment” value (human GLP-1R [5]) was “partial agonist”. The βArr2 slope (human GLP-1R [5]) was 1 ± 0.18, the “SA cAMP + BETP slope” value (human GLP-1R [10]) was 0.98 ± 0.029 and the “food intake versus vehicle” value (cynomolgus monkeys [19]) was “inhibited food intake”. For the same molecule, the “effect on cAMP levels” value (rat GLP-1R) was “did not increase cAMP levels”, the βArr1 slope (human GLP-1R [6]) was 0.90 ± 0.067 and the “[3H]PF-06883365 binding slope” value (human GLP-1R [7]) was 1 ^b. The “cAMP signaling at human GLP-1R W33S” value (human GLP-1R W33S) was “failed to induce signaling” and the “cAMP signaling at human GLP-1R W33S” value (human GLP-1R W33S; listed as Danuglipron) was “negated”.
